For experiment [1], the system named is HE15 activation of AP-1 activity. Description: Inhibitor screen: HE15 (constitutive ER) activation of AP-1 activity. Particulars: HeLa cells. It counts as cell-based. As to the method: (§1) An estrogen receptor (ER) was transiently transfected into either HeLa or HepG2 cells along with an AP-1 responsive reporter gene, Coll73-LUC. The transformed cells were then contacted with antiestrogens or estrogen in combination with prospective inhibitor drugs. […] Luciferase was measured in cell extracts as an indication of AP-1 dependent promoter activity.

Experiment [2] relates to ER activation of AP-1 (Coll73-LUC). In words: Inhibitor screen: ER transiently transfected with Coll73-LUC in HeLa or HepG2 cells, hormone plus prospective inhibitor. The experiment is classed as cell-based. The procedure: as §1
The test system of another experiment is MCF-7 cell. As to conditions: Braacke et al. 1991; cited from earlier work.
Another experiment relates to ER at classical ERE. In words: Reporter genes containing classical EREs (ERE-coll60, ERE-tk) in cells with ER. The experiment is classed as cell-based, human. As to the method: FIGS. 2A-2C show antiestrogen stimulation of expression in an intact AP-1 Site, but not at classical EREs. […] Representations, at left, show the human collagenase promoter (shaded) and the consensus AP-1 site. CAT activities were from cells maintained in the absence of hormone or saturating concentrations of ICI 164,384 (ICI, 1 μM), tamoxifen (5 μM) or estradiol ([…]). CAT activity is normalized to a transfection control with the actin promoter driving expression of βHCG. Single representative experiments are shown, error bars represent standard deviation of triplicate hormone treatments.
All reporter genes described below have been modified by digestion with EcoR I and Ndel to remove a AP-I site in the backbone of pUG. Thus, Coll73 and Coll60 are formerly_Coll73 and_Coll60 (Lopez et al. Mol. Cell. Biol. 13:3042-930 (1993)). Coll73-LUC was constructed by cloning a BamHI/Pvull fragment, that spanned the luciferase transcription unit, from pMG3 into coll73, which had been digested with BamHI and SmaI to remove the CAT transcription unit. EREcoll60 and EREcoll73 was prepared by ligation of a consensus ERE ([…], SEQ ID NO:3), into the HindIII site upstream of coll60 and coll73, respectively. All other reporter genes have been previously described (Webb et al. Mol. Endocrinol. 6:157-16725 (1992): and Lopez et al., supra).
Cells were maintained and transfected as previously described in Webb et al., supra. Hormones were added two hours after plating in the following concentrations, estradiol 100 nM, ICI 164,384 1 μM, tamoxifen 5 μM, to ensure saturation of the response. F9 cells were seeded at 30% confluence upon 1.5 cm dishes and transfected overnight by calcium phosphate coprecipitation with 5 μg reporter gene, 1 μg actin β-HCG, and 1 μg of HEO, 300 ng each of c-jun and c-fos expression vectors. The cells were glycerol shocked and refed in growth medium containing hormone or ethanolic vehicle. In transient transfections, optimal amounts of HEO were employed and were as follows: HeLa (5 μg); NIH3T3 (1 μg); HepG2 (1 μg); SHM (300 ng); SY5Y (300 ng); CEF (100 ng); CV-1 (3 μg); MDA453 (3 μg); CHO (100 ng) and F9 (1 μg).
(§2) CAT assays were carried out as described in Webb et al., except that the cells were harvested one to two days after transfection instead of three. CAT activities were defined as the increase in cpm per hour at room temperature (corrected for background) per 100 μl of cell extract, normalized to production of 100 standard units of βHCG, from a co-transfected reporter gene, actin-HCG. Luciferase assays were performed as described by Brasier et al. Methods Enzymol 216:386-97 (1992)) on similar extracts that were used for CAT assays. Light units were defined as the luciferase activity per 100 μl of cell extract per 100 standard units of βHCG. Relative luciferase activities were calculated with respect to the results that were obtained in the absence of ER and hormone, which was set at 1 unit. For the data presented in Table I triplicate points were determined. Standard deviations were less than 20%.
The activity of antiestrogens in the AP-1 pathway was also compared with their activity in the classical pathway. […] A promoter with both an ERE and an AP-1 site (ERE-coll73 FIG. 2C) gave a large estrogen response, but retained some response to antiestrogens. Another control reporter, in which the tk promoter was regulated by a classical ERE (ERE-tk FIG. 2C) was also activated by estrogen, but not by antiestrogens.

Experiment [3] deals with human ER at the AP-1 site of the collagenase promoter (coll73). In words: Coll73-LUC luciferase reporter (collagenase promoter with AP-1 site) in cells transfected with human ER expression vector HEO. It counts as cell-based. As to conditions: for Coll73 Luciferase Activity: relative to no ER; for half maximal dose relative to that for estrogen, induction of coll73-LUC: HeLa cells, 5 μg ER expression vector, FIG. 3B. As to the method:
All reporter genes described below have been modified by digestion with EcoR I and Ndel to remove a AP-I site in the backbone of pUG. […] Coll73-LUC was constructed by cloning a BamHI/Pvull fragment, that spanned the luciferase transcription unit, from pMG3 into coll73, which had been digested with BamHI and SmaI to remove the CAT transcription unit.
(§3) Cells were maintained and transfected as previously described in Webb et al., supra. […] F9 cells were seeded at 30% confluence upon 1.5 cm dishes and transfected overnight by calcium phosphate coprecipitation with 5 μg reporter gene, 1 μg actin β-HCG, and 1 μg of HEO, 300 ng each of c-jun and c-fos expression vectors. The cells were glycerol shocked and refed in growth medium containing hormone or ethanolic vehicle.
as §2, with “Luciferase assays were performed as described by Brasier et al. Methods Enzymol 216:386-97 (1992)) on similar extracts that were used for CAT assays.” left out, “determined.” for “determined. Standard deviations were less than 20%.”
In each case, the cells were transfected with different amounts of the human ER expression vector HEO to determine the optimal response.
For orientation: Reporter assays use an easily measured gene product as a stand-in for the process of interest.

Experiment [4] deals with ER at the AP-1 site of the collagenase promoter. In words: Collagenase promoter reporter in cells that express endogenous ER (Ishikawa, MCF-7, ZR-75-1). The experiment is classed as cell-based. Particulars: for activation of the collagenase promoter (coll73-CAT) / induction of the collagenase promoter (coll73-LUC): Ishikawa cells; for activation of the collagenase promoter (coll73-CAT): endogenous receptor, FIG. 4A; for induction of the collagenase promoter (coll73-LUC): receptor levels raised by transfection.
Experimental: Left panel, coll73-CAT response with endogenous ER contrasted with the response of an ERE regulated reporter, ERE-coll60CAT. Right panel, coll73-LUC response with 3 μg co-transfected expression vector for human ER. Averages of three individual experiments are shown. […] A single representative experiment with triplicate hormone treatments is shown.
(§4) To further explore this phenomenon, and to test whether similar hormone effects could be detected at physiological levels of ER, the expression of the collagenase promoter in cells that express endogenous ER was examined.

Experiment [5] has as its system ER at classical ERE, ERC1 cells. Description: Estrogenic activity screen: CAT reporter gene linked to a classical ERE in ERC1 cells. As to conditions: ICI 164384 with series 4 compounds. The experiment is classed as cell-based, human. As to the method:
A library of hydroxystilbene derivatives as shown in FIG. 9 was screened for estrogenic activity in cell culture assays using a CAT reporter gene linked to a classical ERE in ERC1 cells as described in Webb et al., supra. After transient transfection with CAT reporter genes, each hydroxystilbene was added to the cultured ERC 1 cells. ER-regulated response was compared either to treatment with 17β-estradiol as a calibration standard or to treatment with an ethanolic vehicle.
Dose response experiments were performed on the series 4 compounds over a concentration range of 0-100 μM (FIG. 1).

Experiment [6] relates to ER at classical ERE, Ishikawa cells. Description: ERE-coll60CAT reporter in Ishikawa cells. It counts as cell-based.
Text: Left panel, coll73-CAT response with endogenous ER contrasted with the response of an ERE regulated reporter, ERE-coll60CAT. […] Averages of three individual experiments are shown. […] A single representative experiment with triplicate hormone treatments is shown.
as §4
For experiment [7], the system named is human ER at the AP-1 site (collagenase promoter, AP-1-tk), HeLa cells. In words: CAT assays of HeLa cells transfected with AP-1 site reporter genes and human ER expression vector. The experiment is classed as cell-based. The procedure: Representations, at left, show the human collagenase promoter (shaded) and the consensus AP-1 site. […] CAT activity is normalized to a transfection control with the actin promoter driving expression of βHCG. Single representative experiments are shown, error bars represent standard deviation of triplicate hormone treatments.
as §3
as §2, with “Luciferase assays were performed as described by Brasier et al. Methods Enzymol 216:386-97 (1992)) on similar extracts that were used for CAT assays.” left out, “determined.” for “determined. Standard deviations were less than 20%.”
To further examine the effects of antiestrogens on the AP-1 directed pathway, reporter genes derived from the human collagenase promoter were transfected into HeLa cells.

[8] abbreviates: CEF (fibroblast), no hormone, saturating hormone.
Where [9] appears, read: CHO (ovary), no hormone, saturating hormone.
Setting [10] is: CV-1 (kidney), no hormone, saturating hormone.
The mark [11] stands for this setting: F9 (teratocarcinoma), no hormone, unliganded ER gave 3.2.
[12] abbreviates: HELA (cervix), no hormone = 1, ICI 1 μM, tamoxifen 5 μM, estradiol 100 nM.
[13] abbreviates: HEP G2 (liver), no hormone, saturating hormone.
Where [14] appears, read: MDA453 (breast), no hormone, saturating hormone.
[15] abbreviates: NIH 3T3 (fibroblast), no hormone, saturating hormone.
The mark [16] stands for this setting: SHM (myometrium), no hormone, saturating hormone.
The mark [17] stands for this setting: SY5Y (neuroblastoma), no hormone, saturating hormone.

On to `Nc1ncc2[nH]cnc2n1` [2-aminopurine], for which, in experiment [1], the “inhibition of the activation of AP-1 activity by HE15” value (shortened to “inhibition … by HE15”) is recorded as “inhibit”. In [2], the “inhibition of hormone action at AP-1 sites” value (“inhibition of hormone action” below) was “inhibit hormone action at AP-1 sites”.
As to `CC/C(=C(\c1ccccc1)c1ccc(OCCN(C)C)cc1)c1ccc(O)cc1` [4′-hydroxytamoxifen], in the experiment on MCF-7 cell, the “MCF-7 cell invasion activity of a re-constituted basement membrane” value was “stimulated”.
With `Nc1nc2nc[nH]c2c(=S)[nH]1` [6-thioguanine], the “inhibition … by HE15” value in experiment [1] was “inhibit”. For the same compound, the “inhibition of hormone action” value in experiment [2] was “inhibit hormone action at AP-1 sites”.
`O=S(=O)(NCCNC/C=C/c1ccc(Br)cc1)c1cccc2cnccc12` [H89]: the “inhibition … by HE15” value in [1] is listed as “did not”.
Take `CCCCN(C)C(=O)CCCCCCCCCC[C@@H]1Cc2cc(O)ccc2[C@H]2CC[C@]3(C)[C@@H](O)CC[C@H]3[C@H]12` [ICI 164,384]: the “activity at classical EREs” value with ER at classical ERE (range of cell types of Table I (data not shown)) was “pure antagonist”. In addition, the “Coll73 Luciferase Activity” value came out at 3.2 in [3] (setting [8]); 1.8 in experiment [3] (setting [9]); 3.1 in [3] (setting [10]); 2.4 in experiment [3] (setting [11]); 3.7 in experiment [3] (setting [12]); 5.2 in experiment [3] (setting [13]). Further, the “Coll73 Luciferase Activity” value came to 1.1 in experiment [3] (setting [14]), 3.0 in [3] (setting [15]), 1.9 in experiment [3] (setting [16]) and 2.3 in [3] (setting [17]). In addition, in experiment [3], the “half maximal dose relative to that for estrogen, induction of coll73-LUC” value was “about 10 times”. The “activation of the collagenase promoter (coll73-CAT)” value in [4] is “usually inactive”. In addition, the “induction of the collagenase promoter (coll73-LUC)” value in experiment [4] was “inductions became detectable”. Besides, the “inhibition of the series 4 estrogenic activity” value in [5] is on record as “inhibit the estrogenic activity of all the series 4 compounds”. In addition, the “MCF-7 cell invasion activity of a re-constituted basement membrane” value in the experiment on MCF-7 cell was “blocked”. In experiment [6], the “expression of ERE-coll60” value is on record as “neither ICI nor tamoxifen activated”. In addition, the “activation of transcription, collagenase AP-1 site upstream of the herpes virus tk promoter” value in [7] was “able to activate transcription”.
On to `O=c1c(-c2ccc(O)cc2)coc2cc(O)cc(O)c12` [genistein], for which the “inhibition … by HE15” value in experiment [1] was “inhibit”. For the same compound, in experiment [2], the “inhibition of hormone action” value is reported as “inhibit hormone action at AP-1 sites”.
For `CC/C(=C(\c1ccccc1)c1ccc(OCCN(C)C)cc1)c1ccccc1` [tamoxifen], the “inductions at classical EREs, % of estrogen” value in the experiment with ER at classical ERE (CEF cells), in the experiment on ER at classical ERE (CV-1 cells) and with ER at classical ERE (MDA453 cells) was 30% each time. Further, in the experiment with ER at classical ERE (HeLa cells, and most other cases), the “inductions of ERE-coll60 activity relative to those obtained with estrogen” value is given as “less than 3%”. For the same compound, the “Coll73 Luciferase Activity” value amounted to 2.2 in experiment [3] (setting [8]); 2.2 in experiment [3] (setting [9]); 5.3 in experiment [3] (setting [10]); 1.1 in experiment [3] (setting [11]); 7.4 in experiment [3] (setting [12]); 6.5 in [3] (setting [13]). Further, the “Coll73 Luciferase Activity” value in [3] (setting [14]) was 2.1; in [3] (setting [15]), 3.1; in experiment [3] (setting [16]) it was 2.2; in experiment [3] (setting [17]) it was 2.1. In addition, in experiment [3], the “half maximal dose relative to that for estrogen, induction of coll73-LUC” value is recorded as roughly 100 times. In addition, the “activation of the collagenase promoter (coll73-CAT)” value in [4] is given as “activated”. The “induction of the collagenase promoter (coll73-LUC)” value in experiment [4] is “inductions became larger”. Besides, the “activation of the collagenase promoter” value is listed as “not tamoxifen” in experiment [4] (MCF-7 cells, endogenous ER, FIG. 4B) and “The same pattern occurred” in experiment [4] (ZR-75-1 cells). Besides, in experiment [6], the “expression of ERE-coll60” value is on record as “neither ICI nor tamoxifen activated”. Also, the “activation of transcription, collagenase AP-1 site upstream of the herpes virus tk promoter” value in experiment [7] is “able to activate transcription”. Besides, the “activation of the collagenase promoter (coll517, coll73)” value in [7] (transiently expressed human ER, FIG. 2A) is given as “more potent an activator than estrogen”.
For the compound calphostin c, the “inhibition … by HE15” value in experiment [1] is on record as “did not”.

These data come from patent US6884577B2, “Methods for screening compounds for estrogenic activity” (The Regents of the University of California, priority 1993, dated 2005).
